Test results: US10238630B2, “Use of eribulin and poly (ADP ribose) polymerase (PARP) inhibitors as combination therapy for the treatment of cancer” (Eisai R&D Management Co., Ltd., priority 2014, dated 2019)
“Also recorded” adds a separate entry of the source. Structures can show the parent of a compound that is named as a salt.

Columns and labels:
[1] = tested on: MDA-MB-468 human breast cancer xenografts; test: Antitumor activity against subcutaneous MDA-MB-468 human breast cancer xenografts in athymic mice; assay type: in vivo
Description: MDA-MB-468 human triple negative breast cancer cells are wild type for BRCA1 and 2 and PTEN null. Cells were maintained in monolayer cultures in RPMI-1640 growth medium supplemented with 10% fetal bovine serum at 37° C. in a 5% CO2 humidified incubator. On the day of inoculation, cells were harvested by trypsinization, washed, and resuspended in ice-cold PBS. Female immunodeficient athymic mice were inoculated subcutaneously near the right axillary area with MDA-MB-468 cells (5×10^6) in a 1:1 ratio (50 μL each) with matrigel in a volume of 0.1 mL in phosphate buffered saline using a 26-gauge needle. A total of 60 mice, approximately 8 weeks old were implanted with MDA-MB-468 cells.
E7449 and E7389 were evaluated as single agents and in combination for antitumor activity against MDA-MB-468 human breast cancer xenografts in athymic mice. The experiment consisted of a vehicle control group, an E7449 single agent group, two groups treated with single agent E7389 and 2 combination drug-treated groups (Table 4). Sixty mice were inoculated with MDA-MB-468 cells. On day 7 following implantation, tumor volumes were measured and mice were randomized into the 6 treatment groups based on tumor volume (average of 180 mm^3). Following randomization drug treatment was initiated. Each group was composed of 6 mice for a total of 36 mice on the first day of treatment. E7449 was formulated in 0.5% methyl cellulose and orally administered daily at 100 mg/kg based on body weight at 0.1 mL per 10 g. E7449 was administered once daily for 28 days (starting on Day 7) as a single agent or in combination. E7389 was formulated in saline and was intravenously administered once every 4 days, 3 times (Day 7, 11, and 15) at a dosage of 0.1 or 0.4 mg/kg as single agent or in combination with E7449, based on body weight at 0.1 mL per 10 g. The control group was treated with oral vehicle (0.5% methyl cellulose in water) daily and intravenous vehicle (saline) once every 4 days, 3 times. E7449 or vehicle was administered first and when dosing of all animals was complete, E7389 was administered to animals receiving the combination.
Drug treatment was initiated 7 days post tumor implantation and continued for 28 days. Animals whose tumor measurement reached […] at the longest axis or whose tumor became ulcerated were euthanized prior to study termination. The study was terminated on Day 52. Statistical analysis was performed on Days 35 and 52.
Statistical analysis of the vehicle group (A) versus the drug-treated groups (B, C, D, E, and F) was performed by a one way analysis of variance (ANOVA) for tumor volume followed by Dunnett's multiple comparisons test. The analysis was performed at vehicle endpoint on Day 35 of the study. […]

[2] = tested on: HCC1806 human breast cancer xenografts; test: Antitumor activity against subcutaneous HCC1806 human breast cancer xenografts in athymic mice; assay type: in vivo
Description: HCC1806 human triple negative breast cancer cells, wild type for BRCA and PTEN, were maintained in monolayer cultures in RPMI-1640 growth medium supplemented with 10% fetal bovine serum at 37° C. in a 5% CO2 humidified incubator. On the day of inoculation, cells were harvested by trypsinization, washed, and resuspended in ice-cold PBS. Female immunodeficient athymic mice were inoculated subcutaneously near the right axillary area using a 26-gauge needle with HCC1806 cells (2.5×10^6) in a 0.1 mL volume. A total of 60 mice, approximately 6 weeks old were implanted with cells.
E7449 and E7389 were evaluated as single agents and in combination for anti-tumor activity against HCC1806 human breast cancer xenografts in athymic mice. The experiment consisted of a vehicle-treated control group, an E7449 single agent-treated group, two groups treated with single agent E7389 and 2 combination drug-treated groups (Table 7). Each group was composed of 8 mice for a total of 48 mice on the first day of treatment. Sixty mice were inoculated with HCC1806 cells and on day 5 following implantation, tumor volumes were measured and mice were randomized into the 6 treatment groups based on tumor volume (average of 150 mm^3). Following randomization drug treatment was initiated (Day 5). E7449 was formulated in 0.5% methyl cellulose and orally administrated daily at 100 mg/kg based on body weight at 0.1 mL per 10 g. E7449 was administered once daily for 28 days (starting on Day 5) as a single agent or in combination with E7389. E7389 was formulated in saline and was administered intravenously once every 4 days 4 times (Day 5, 9, 13, and 17) at a dosage of 0.1 or 0.4 mg/kg as single agent or in combination with E7449, based on body weight at 0.1 mL per 10 g. The control group was treated with oral vehicle (0.5% methyl cellulose in water) daily and intravenous vehicle (saline) once every 4 days, 4 times. E7449 or vehicle was administered first and when dosing of all animals was complete E7389 was administered to animals receiving the combination.
Tumor dimensions were recorded twice per week starting at the initiation of drug treatment. […] The data generated consist of group mean tumor volumes and group mean body weights at each measurement.
Drug treatment was initiated following randomization on Day 5 (5 days post tumor implantation) and continued for 28 days. Animals whose tumor measurement reached ≥2 cm at the longest axis were euthanized prior to study termination. The study was terminated on Day 38. Statistical analysis was performed on Day 20.
Statistical analysis of the vehicle group (A) versus all drug treatment groups (B, C, D, E and F) was performed by a one way analysis of variance (ANOVA) for tumor volume followed by Dunnett's multiple comparison test. […]

[3] = tested on: BR1282; test: Antitumor effect in patient-derived xenograft (PDx) BR1282 of triple negative breast cancer in athymic mice; assay type: in vivo, human
[4] = tested on: BR1474; test: Antitumor effect in patient-derived xenograft (PDx) BR1474 of triple negative breast cancer in athymic mice; assay type: in vivo, human
[5] = E7449 100 mg/kg PO QDx28, single agent, 100 mg/kg

Row | SMILES | antitumor effect (tumor volume) [1, 5] | antitumor effect (tumor volume) [2, 5] | antitumor effect (tumor growth) ([3]; E7449 single agent) | sensitivity of the model among the three PDx models ([4]; E7449 as a single agent) | tumor re-growth following treatment ([1]; E7389 0.1 mg/kg IV Q4Dx3, single agent) | tumor re-growth following treatment ([1]; E7389 0.4 mg/kg IV Q4Dx3, single agent, up to Day 52) | antitumor effect (tumor volume) ([1]; E7389 0.1 and 0.4 mg/kg IV Q4Dx3, single agent) | antitumor effect (tumor volume) ([2]; E7389 0.1 mg/kg IV Q4Dx4, single agent) | antitumor effect (tumor volume) ([2]; E7389 0.4 mg/kg IV Q4Dx4, single agent) | antitumor effect (tumor volume), dose dependence ([2]; E7389 0.1 and 0.4 mg/kg IV Q4Dx4, single agent) | antitumor effect (tumor growth) ([3]; E7389 0.3 mg/kg, single agent) | antitumor effect (tumor growth) ([3]; E7389 single agent, 0.1 mg/kg (dose as read from the sentence)) | antitumor effect (tumor volume) ([4]; E7389 0.3 mg/kg, single agent)
1 | O=c1[nH]nc2c3c(cccc13)N=C(CN1Cc3ccccc3C1)N2 [E7449] | did not significantly inhibit tumor growth; also recorded: No antitumor activity | no effect on tumor growth; also recorded: No antitumor activity | had no impact on the tumor growth | most sensitive | – | – | – | – | – | – | – | – | –
2 | C=C1C[C@@H]2CC[C@@]34C[C@H]5OC6[C@@H](O[C@H]7CC[C@H](CC(=O)C[C@@H]8[C@@H](OC)[C@@H](C[C@H](O)CN)O[C@H]8C[C@H]8O[C@@H](CC[C@@H]1O2)C[C@@H](C)C8=C)O[C@@H]7[C@@H]6O3)[C@H]5O4 [E7389, 11, 15:18,21:24,28-triepoxy-7,9-ethano-12,15-methano-9H,15H-furo[3,2-i]furo[2′,3′:5,6]pyrano[4,3-b] [1,4]dioxacyclopentacosin-5(4H)-one, 2-[(2S)-3-amino-2-hydroxypropyl]hexacosahydro-3-methoxy-26-methyl-20,27-bis(methylene)-, (2R,3R,3aS,7R,8aS,9S,10aR,11S,12R,13aR,13bS,15S,18S,21S,24S,26R,28R,29aS)-methanesulfonate (salt)] | – | – | – | – | began re-growing within days of final E7389 dose | became tumor-free with no palpable tumors observed up to the date of study termination | Tumor regression | tumor growth inhibition | tumor regression | Dose-dependent antitumor activity | inhibited tumor growth to a similar degree | had no impact on the tumor growth | enhanced antitumor activity
